The values that follow come from PMC12072202, “Identification of Novel HPK1 Hit Inhibitors: From In Silico Design to In Vitro Validation” (International Journal of Molecular Sciences, 2025).

Values joined by “and” are separate entries in the source; they are usually repeats but may differ in a detail not shown here. Identical values can stand only once. Like-named read-outs stand apart in the source and are kept apart here.

For this experiment, the target named is T1, human recombinant active HPK1 (Homo sapiens, UniProt Q92918).
T1 construct: purchased Reaction Biology Corp., Malvern, PA, USA (contract assay)
The experiment is described as follows: radiometric HotSpot kinase assay (33P-ATP, myelin basic protein substrate). The conditions noted are these: for inhibition at 25 µM: 25 µM compound; for inhibition at 25 µM / inhibition at 50 µM: duplicate; for inhibition at 50 µM: 50 µM compound. It counts as biochemical. As for the experimental part:
The in vitro inhibitory activity of the fifteen purchased compounds against recombinant human HPK1 was evaluated using a radiometric HotSpot^TM kinase assay. The results were expressed as a percentage of the remaining kinase activity relative to its activity in negative control reactions (DMSO). […] Six hits (ISR-03, ISR-04, ISR-05, ISR-10, ISR-13, and ISR-11) were selected for IC50 value determination.
The selected compounds were purchased from ASINEX (ASINEX, Amsterdam, The Netherlands) and OTAVA lead-like (OTAVA Ltd., Vaughan, ON, Canada) via local vendors. […] In brief, this assay was performed by preparing the kinase substrate (myelin basic protein) with a concentration of 20 µM in freshly prepared base reaction buffer (20.0 mM Hepes (pH 7.5), 10.0 mM MgCl2, 1.0 mM EGTA, 0.01% Brij35, 0.02 mg/mL BSA, 0.1 mM Na3VO4, 2.0 mM DTT, and 1% DMSO). Then, the kinase enzyme was delivered into the substrate solution by gently mixing, followed by adding the tested compounds dissolved in 100% DMSO using the Echo550 liquid handler and incubated for 20 min at room temperature. Finally, the reaction was initiated by the addition of ^33P-γ-ATP with a concentration of 10.0 µM and incubated for 2 h at room temperature. The percentage of kinase activity was detected using the P81 filter-binding method. For IC50 determination, the compounds’ inhibitory activity was tested at 10 concentrations (100 µM, 33.3 µM, 11.10 µM, 3.70 µM, 1.23 µM, 0.412 µM, 0.137 µM, 45.70 nM, 15.20 nM, and 5.08 nM) in one independent experiment in duplicate mode and prepared using 3-fold serial dilutions. The percentage of remaining kinase activity in tested samples was determined first, and then Prism GraphPad software version 10.2.0 (nonlinear regression/variable slope) was used to obtain the IC50 values and curve fits.

[1] abbreviates: 10 concentrations, 3-fold dilution from 100 µM, 10 µM ATP, mean ± SD where given, read-out: IC50.
Setting [2] is: Prism fit table of single inhibition curve (A/B replicate), Figure 3, unit inferred, read-out: EC50 (the source's name).

T1 sequence (Q92918 whole entry): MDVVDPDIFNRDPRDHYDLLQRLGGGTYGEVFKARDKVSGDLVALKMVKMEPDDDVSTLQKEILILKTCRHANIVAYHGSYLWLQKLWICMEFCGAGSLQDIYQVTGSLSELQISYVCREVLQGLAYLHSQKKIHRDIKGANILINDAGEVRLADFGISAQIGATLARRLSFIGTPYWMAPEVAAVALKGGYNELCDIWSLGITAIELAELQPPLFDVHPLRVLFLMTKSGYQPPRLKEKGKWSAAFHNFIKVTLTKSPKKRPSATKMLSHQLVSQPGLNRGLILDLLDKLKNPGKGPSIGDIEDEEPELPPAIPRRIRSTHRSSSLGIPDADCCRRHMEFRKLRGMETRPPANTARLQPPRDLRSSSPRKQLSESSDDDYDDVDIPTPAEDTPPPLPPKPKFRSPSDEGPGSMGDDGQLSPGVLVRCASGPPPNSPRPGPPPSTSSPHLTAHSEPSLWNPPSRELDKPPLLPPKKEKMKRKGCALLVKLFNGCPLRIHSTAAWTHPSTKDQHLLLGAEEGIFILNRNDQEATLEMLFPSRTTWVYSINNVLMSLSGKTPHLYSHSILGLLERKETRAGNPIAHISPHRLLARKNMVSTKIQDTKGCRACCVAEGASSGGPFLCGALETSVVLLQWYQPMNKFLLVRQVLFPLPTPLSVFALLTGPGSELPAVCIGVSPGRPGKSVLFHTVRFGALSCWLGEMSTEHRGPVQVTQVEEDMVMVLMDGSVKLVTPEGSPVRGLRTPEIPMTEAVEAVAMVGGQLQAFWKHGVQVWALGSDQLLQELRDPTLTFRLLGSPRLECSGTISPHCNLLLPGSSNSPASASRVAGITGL

The inhibition is the percentage by which the read-out fell short of the control. Turning to `COc1ccc2[nH]c(=O)c(CNc3ccccc3NC(C)=O)cc2c1` [ISR-03], under “10 µM ATP”, the inhibition at 25 µM came to 26.6% and the inhibition at 50 µM came out at 52.4%. Also, the IC50 under setting [1] was 43.9 µM. Also, the IC50 under setting [2] was 44 µM and 43.8 µM.
As to `CCCNC(=O)c1cc2c(=O)n3cccc(C)c3nc2s1` [ISR-04], under “10 µM ATP”, the inhibition at 25 µM stood at 2.44% and the inhibition at 50 µM was 10.1%. Also, the IC50 under setting [1] was above 100 µM.
Consider `Cc1cccn2c(=O)c3cc(C(=O)Nc4ccccc4C(N)=O)sc3nc12` [ISR-05], for which, for the setting “10 µM ATP”, the inhibition at 25 µM turned out to be 0% and the inhibition at 50 µM was 13.9%. Moreover, under setting [1], the IC50 was found to be 24.2 µM. Besides, the IC50 under setting [2] was 20.6 µM and 27.7 µM.
